In US20160193216A1 (Nimbus Iris, Inc., priority 2012, published 2016) one finds IC50 data, which are given here for 29 molecules.

By IC50 is commonly meant the midpoint of a concentration-inhibition curve. High values mean a need for much substance, low ones inhibition by little substance.

Where only a bound is given, the exact number is not on record here.

In the test the target is T1, IRAK4 (Homo sapiens, UniProt Q9NWZ3).
T1 sequence (Q9NWZ3 1-460): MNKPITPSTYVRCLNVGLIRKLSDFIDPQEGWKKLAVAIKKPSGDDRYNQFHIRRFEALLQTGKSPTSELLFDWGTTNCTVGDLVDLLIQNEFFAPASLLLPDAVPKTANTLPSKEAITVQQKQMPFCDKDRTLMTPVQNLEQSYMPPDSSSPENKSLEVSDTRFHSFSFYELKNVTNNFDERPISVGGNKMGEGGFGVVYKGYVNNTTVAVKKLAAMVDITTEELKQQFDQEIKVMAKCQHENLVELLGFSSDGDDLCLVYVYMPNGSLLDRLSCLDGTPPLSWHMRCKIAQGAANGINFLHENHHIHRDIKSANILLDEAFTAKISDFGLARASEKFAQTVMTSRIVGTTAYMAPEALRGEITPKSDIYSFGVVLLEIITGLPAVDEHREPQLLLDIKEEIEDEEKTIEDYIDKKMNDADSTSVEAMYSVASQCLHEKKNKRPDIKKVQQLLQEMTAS
The test is described as follows: IRAK-4 activity inhibition assay (Caliper). It is filed as biochemical. To be noted: 37 μM ATP, 3.5 nM IRAK4.
`CN(C)[C@H]1CC[C@H](Nc2ncnc3sc4c(c23)[C@@H](CC(N)=O)CC4)CC1` [Compound I-99, 2-[(3R)-12-[[4-(dimethylamino)cyclohexyl]amino]-7-thia-9,11-diazatricyclo[6.4.0.0[2,6]]dodeca-1(12),2(6),8,10-tetraen-3-yl]acetamide] showed a 50% inhibitory concentration (IC50) of less than 5 µM. For `CS(=O)(=O)N1CCc2sc3ncnc(O[C@H]4CC[C@H](N5CCOCC5)CC4)c3c2C1` [Compound I-187, 12-methanesulfonyl-3-[[4-(morpholin-4-yl)cyclohexyl]oxy]-8-thia-4,6, 12-triazatricyclo[7.4.0.0[2,7]]trideca-1(9),2(7),3,5-tetraene], the IC50 was less than 5 µM. The value for `C[C@@H]1COCCN1[C@H]1CC[C@H](Oc2ncnc3sc4c(c23)[C@@H](CC(N)=O)CC4)CC1` [Compound I-227, 2-[(3R)-12-([4-[(3R)-3-methylmorpholin-4-yl]cyclohexyl]oxy)-7-thia-9,11-diazatricyclo[6.4.0.0[2,6]]dodeca-1(8),2(6),9, 11-tetraen-3-yl]acetamide] was less than 5 µM; that for `CCC(O)C[C@@H]1CCc2sc3ncnc(O[C@H]4CC[C@H](N5CCOCC5)CC4)c3c2C1` (stereo partly drawn) [Compound I-183, 1-((R)-4-(((1r,4R)-4-morpholinocyclohexyl)oxy)-5,6,7,8-tetrahydrobenzo[4,5]thieno[2,3-d]pyrimidin-6-yl)butan-2-ol] was less than 5 µM; that for `COCCN[C@H]1CC[C@H](Oc2ncnc3sc4c(c23)[C@@H](CC(N)=O)CC4)CC1` [Compound I-133, 2-[(3R)-12-([4-[(2-methoxyethyl)amino]cyclohexyl]oxy)-7-thia-9,11-diazatricyclo[6.4.0.0[2,6]]dodeca-1(12),2(6),8,10-tetraen-3-yl]acetamide] was less than 5 µM. The value for `NC(=O)C[C@H]1CCc2sc3ncnc(OCC4CCNCC4)c3c21` [Compound I-143, 2-[(3R)-12-(piperidin-4-ylmethoxy)-7-thia-9,11-diazatricyclo[6.4.0.0[2,6]]dodeca-1(12),2(6),8,10-tetraen-3-yl]acetamide] was 5 to 20 µM. `CN(C)[C@H]1CC[C@H](Nc2ncnc3sc4c(c23)C(CO)CC4)CC1` (some centres unmarked) [Compound I-3]: the IC50 was less than 5 µM. The value for `CC[S@+]([O-])C[C@H]1CCc2sc3ncnc(O[C@H]4CC[C@H](N(C)C)CC4)c3c21` (single isomer, unassigned) [Compound I-45] was less than 5 µM; that for `CN(CCF)[C@H]1CC[C@H](Oc2ncnc3sc4c(c23)[C@@H](CC(N)=O)CC4)CC1` [Compound I-125, 2-((R)-4-(((1r,4R)-4-((2-fluoroethyl)(methyl)amino)cyclohexyl)oxy)-6,7-dihydro-5H-cyclopenta[4,5]thieno[2,3-d]pyrimidin-5-yl)acetamide] was less than 5 µM; that for `CN(C)[C@H]1CC[C@H](Nc2ncnc3sc4c(c23)C(CC#N)CC4)CC1` (some centres unmarked) [Compound I-9] was less than 5 µM.

`CN(C)[C@H]1CC[C@H](Oc2nc(Nc3ccc(N4CCNCC4)cc3)nc3sc4c(c23)C(CC(N)=O)CC4)CC1` (mixture of isomers) [Compound I-205, 2-(12-[[4-(dimethylamino)cyclohexyl]oxy]-10-[[4-(piperazin-1-yl)phenyl]amino]-7-thia-9, 11-diazatricyclo[6.4.0.0[2,6]]dodeca-1(12),2(6),8, 10-tetraen-3-yl)acetamide] yielded an IC50 of less than 5 µM. `CN[C@H]1CC[C@H](Oc2ncnc3sc4c(c23)[C@@H](C[C@@H](C#N)OC)CC4)CC1` [Compound I-80, (2S)-2-methoxy-3-[(3R)-12-[[4-(methylamino)cyclohexyl]oxy]-7-thia-9,11-diazatricyclo[6.4.0.0[2,6]]dodeca-1(8),2(6),9,11-tetraen-3-yl]propanenitrile] had an IC50 of less than 5 µM.

Molecule `CN(C)[C@H]1CC[C@H](Oc2ncnc3sc4c(c23)[C@H](CC(=O)Nc2ccc(F)cn2)CC4)CC1` [Compound I-38, 2-[(3S)-12-[[4-(dimethylamino)cyclohexyl]oxy]-7-thia-9,11-diazatricyclo[6.4.0.0[2,6]]dodeca-1(8),2(6),9,11-tetraen-3-yl]-N-(5-fluoropyridin-2-yl)acetamide] returned an IC50 of 20 to 50 µM.

Take `CN(C)[C@H]1CC[C@H](Oc2ncnc3sc4c(c23)C(CC#N)CC4)CC1` (some centres unmarked) [Compound I-22, 2-(12-[[4-(dimethylamino)cyclohexyl]oxy]-7-thia-9,11-diazatricyclo[6.4.0.0[2,6]]dodeca-1(8),2(6),9,11-tetraen-3-yl)acetonitrile]: the IC50 lay within 5 to 20 µM. The same measure for `CC1(C)Cc2c(sc3ncnc(O[C@H]4CC[C@H](N5CCOCC5)CC4)c23)CO1` [Compound I-193, 12,12-dimethyl-3-[[4-(morpholin-4-yl)cyclohexyl]oxy]-11-oxa-8-thia-4,6-diazatricyclo[7.4.0.0[2,7]]trideca-1(9),2(7),3,5-tetraene]: less than 5 µM. The value for `CO[C@@H](C[C@H]1CCc2sc3ncnc(O[C@H]4CC[C@H](N(C)C)CC4)c3c21)C(N)=O` [Compound I-78, (2S)-3-[(3R)-12-[[4-(dimethylamino)cyclohexyl]oxy]-7-thia-9,11-diazatricyclo[6.4.0.0[2,6]]dodeca-1(8),2(6),9,11-tetraen-3-yl]-2-methoxypropanamide] was less than 5 µM; that for `CC#CCOC[C@H]1CCc2sc3ncnc(O[C@H]4CC[C@H](N(C)C)CC4)c3c21` [Compound I-56, 4-[[(3S)-3-[(but-2-yn-1-yloxy)methyl]-7-thia-9,11-diazatricyclo[6.4.0.0[2,6]]dodeca-1(8),2(6),9,11-tetraen-12-yl]oxy]-N,N-dimethylcyclohexan-1-amine] was less than 5 µM. `CN(C)[C@H]1CC[C@H](Oc2ncnc3sc4c(c23)CC(CC(N)=O)CC4)CC1` (single isomer, unassigned) [Compound I-112]: the IC50 was less than 5 µM. For `CC[C@@H](O)C[C@H]1CCc2sc3ncnc(O[C@H]4CC[C@](CC)(N(C)C)CC4)c3c21` [Compound I-101, (2R)-1-[(3R)-12-[[4-(dimethylamino)-4-ethylcyclohexyl]oxy]-7-thia-9,11-diazatricyclo[6.4.0.0[2,6]]dodeca-1(8),2(6),9,11-tetraen-3-yl]butan-2-ol], the IC50 is less than 5 µM. Molecule `CN(C)[C@H]1CC[C@H](Oc2ncnc3sc4c(c23)CN(S(=O)(=O)CCO)CC4)CC1` [Compound I-209, 2-(3-[[4-(dimethylamino)cyclohexyl]oxy]-8-thia-4,6, 12-triazatricyclo[7.4.0.0[2,7]]trideca-1(9),2,4,6-tetraene-12-sulfonyl)ethan-1-ol] showed an IC50 of less than 5 µM. The value for `CN1Cc2sc3ncnc(O[C@H]4CC[C@H](N5CCOCC5)CC4)c3c2C1` [Compound I-196, 4-methyl-12-[[4-(morpholin-4-yl)cyclohexyl]oxy]-7-thia-4,9,11-triazatricyclo[6.4.0.0[2,6]]dodeca-1(12),2(6),8, 10-tetraene] was 5 to 20 µM; that for `CCNC(=O)C[C@@H]1CCc2sc3ncnc(O[C@H]4CC[C@H](N(C)C)CC4)c3c21` [Compound I-36, 2-[(3S)-12-[[4-(dimethylamino)cyclohexyl]oxy]-7-thia-9,11-diazatricyclo[6.4.0.0[2,6]]dodeca-1(12),2(6),8,10-tetraen-3-yl]-N-ethylacetamide] was greater than 50 µM. The value for `CN(C)[C@H]1CC[C@H](Oc2ncnc3sc4c(c23)C(C)(C)CC4)CC1` [Compound I-7, (1r,4r)-4-((5,5-dimethyl-6,7-dihydro-5H-cyclopenta[4,5]thieno[2,3-d]pyrimidin-4-yl)oxy)-N,N-dimethylcyclohexanamine] was less than 5 µM; that for `CN(C)[C@H]1CC[C@H](Oc2ncnc3sc4c(c23)[C@@H](CO)CC4)CC1` [Compound I-19, ((R)-4-(((1r,4R)-4-(dimethylamino)cyclohexyl)oxy)-6,7-dihydro-5H-cyclopenta[4,5]thieno[2,3-d]pyrimidin-5-yl)methanol] was less than 5 µM. Consider `CC[C@]1(N(C)C)CC[C@H](Oc2ncnc3sc4c(c23)[C@@H](C[C@H](C)O)CC4)CC1` [Compound I-103, (2S)-1-[(3R)-12-[[4-(dimethylamino)-4-ethylcyclohexyl]oxy]-7-thia-9,11-diazatricyclo[6.4.0.0[2,6]]dodeca-1(12),2(6),8,10-tetraen-3-yl]propan-2-ol], for which the IC50 was in the range of 5 to 20 µM. As to `C[C@@H](O)C[C@H]1CCc2sc3ncnc(O[C@H]4CC[C@H](N5CCOCC5)CC4)c3c21` [Compound I-82, (R)-1-((R)-4-(((1r,4R)-4-morpholinocyclohexyl)oxy)-6,7-dihydro-5H-cyclopenta[4,5]thieno[2,3-d]pyrimidin-5-yl)propan-2-ol], the IC50 was less than 5 µM.

In the case of `CN[C@H]1CC[C@H](Oc2ncnc3sc4c(c23)CN(C(C)=O)CC4)CC1` [Compound I-202, 1-(3-[[4-(methylamino)cyclohexyl]oxy]-8-thia-4,6,12-triazatricyclo[7.4.0.0[2,7]]trideca-1 (9),2,4,6-tetraen-12-yl)ethan-1-one], the IC50 is 5 to 20 µM. The same measure for `CN(C)[C@H]1CC[C@H](Nc2ncnc3sc4c(c23)C(CC(=O)N2CC[C@H](O)C2)CC4)CC1` (stereo partly drawn) [Compound I-15, 2-(4-(((1r,4S)-4-(dimethylamino)cyclohexyl)amino)-6,7-dihydro-5H-cyclopenta[4,5]thieno[2,3-d]pyrimidin-5-yl)-1-((S)-3-hydroxypyrrolidin-1-yl)ethanone]: greater than 50 µM. The value for `OCC[C@@H]1CCc2sc3ncnc(O[C@H]4CC[C@H](N5CCOCC5)CC4)c3c2C1` [Compound I-145, 2-((R)-4-(((1r,4R)-4-morpholinocyclohexyl)oxy)-5,6,7,8-tetrahydrobenzo[4,5]thieno[2,3-d]pyrimidin-6-yl)ethanol] was less than 5 µM.
